Measurements reported in ChEMBL document CHEMBL3259797, “Radiosyntheses and in vivo evaluation of carbon-11 PET tracers for PDE10A in the brain of rodent and nonhuman primate” (Bioorg Med Chem, 2014).

Tests used:
Kidney [1] = test: Biodistribution in Sprague-Dawley rat kidney at 14.8 to 18.5 MBq, iv treated with MP-10 for 5 mins prior to compound administration measured at 30 mins post-injection by gamma counting analysis; format: ADME, organism-based; conditions: in vivo, 0.5 h
Nucleic Acid [2] = test: Ratio of drug level in striatum to cerebellum in Sprague-Dawley rat at 14.8 to 18.5 MBq, iv measured at 30 mins post-injection by gamma counting analysis; format: ADME, organism-based; conditions: in vivo, 0.5 h
Kidney [3] = test: Biodistribution in Sprague-Dawley rat kidney at 14.8 to 18.5 MBq, iv measured at 5 mins post-injection by gamma counting analysis; format: ADME, organism-based; conditions: in vivo
[4] = Biodistribution in cynomolgus monkey hippocampus at 260 to 370 MBq, iv measured at 20 to 100 mins post-injection by microPET analysis; format: ADME, organism-based, Macaca fascicularis; conditions: in vivo
Striatum [5] = test: Biodistribution in Sprague-Dawley rat striatum at 14.8 to 18.5 MBq, iv treated with MP-10 for 5 mins prior to compound administration measured at 30 mins post-injection by gamma counting analysis; format: ADME, organism-based; conditions: in vivo, 0.5 h
Cerebellum [6] = test: Biodistribution in Sprague-Dawley rat cerebellum at 14.8 to 18.5 MBq, iv measured at 5 mins post-injection by gamma counting analysis; format: ADME, organism-based; conditions: in vivo
Lung [7] = test: Biodistribution in Sprague-Dawley rat lung at 14.8 to 18.5 MBq, iv measured at 30 mins post-injection by gamma counting analysis; format: ADME, organism-based; conditions: in vivo, 0.5 h
Brain [8] = test: Biodistribution in cynomolgus monkey middle brain at 260 to 370 MBq, iv measured at 20 to 100 mins post-injection by microPET analysis; format: ADME, organism-based, Macaca fascicularis; conditions: in vivo
Muscle tissue = test: Biodistribution in Sprague-Dawley rat muscle at 14.8 to 18.5 MBq, iv treated with MP-10 for 5 mins prior to compound administration measured at 30 mins post-injection by gamma counting analysis; format: ADME, organism-based; conditions: in vivo, 0.5 h
Plasma [9] = test: Drug metabolism in iv dosed cynomolgus monkey plasma assessed as retention time of hydrophilic metabolite by HPLC analysis; format: ADME, organism-based, Macaca fascicularis; conditions: in vivo
Plasma [10] = test: Metabolic stability in iv dosed cynomolgus monkey plasma protein pellet under deproteinated condition assessed as compound remaining measured at 5 to 60 mins by HPLC analysis; format: ADME, organism-based, Macaca fascicularis; conditions: in vivo
Kidney [11] = test: Biodistribution in Sprague-Dawley rat kidney at 14.8 to 18.5 MBq, iv measured at 60 mins post-injection by gamma counting analysis; format: ADME, organism-based; conditions: in vivo, 1 h
Plasma [12] = test: Metabolic stability in iv dosed cynomolgus monkey plasma assessed as compound remaining measured at 5 to 60 mins by HPLC analysis; format: ADME, organism-based, Macaca fascicularis; conditions: in vivo
Heart [13] = test: Biodistribution in Sprague-Dawley rat heart at 14.8 to 18.5 MBq, iv measured at 5 mins post-injection by gamma counting analysis; format: ADME, organism-based; conditions: in vivo
Striatum [14] = test: Biodistribution in Sprague-Dawley rat striatum at 14.8 to 18.5 MBq, iv measured at 60 mins post-injection by gamma counting analysis; format: ADME, organism-based; conditions: in vivo, 1 h
Rattus norvegicus [15] = test: Biodistribution in Sprague-Dawley rat fat at 14.8 to 18.5 MBq, iv treated with MP-10 for 5 mins prior to compound administration measured at 30 mins post-injection by gamma counting analysis; format: ADME, organism-based, Adipose tissue; conditions: in vivo, 0.5 h
Blood [16] = test: Biodistribution in Sprague-Dawley rat blood at 14.8 to 18.5 MBq, iv treated with MP-10 for 5 mins prior to compound administration measured at 30 mins post-injection by gamma counting analysis; format: ADME, organism-based; conditions: in vivo, 0.5 h
Liver [17] = test: Biodistribution in Sprague-Dawley rat liver at 14.8 to 18.5 MBq, iv measured at 30 mins post-injection by gamma counting analysis; format: ADME, organism-based; conditions: in vivo, 0.5 h
Striatum [18] = test: Biodistribution in Sprague-Dawley rat striatum at 14.8 to 18.5 MBq, iv measured at 5 mins post-injection by gamma counting analysis; format: ADME, organism-based; conditions: in vivo
Plasma [19] = test: Metabolic stability in iv dosed cynomolgus monkey plasma supernatant under deproteinated condition assessed as compound remaining measured at 5 to 60 mins by HPLC analysis; format: ADME, organism-based, Macaca fascicularis; conditions: in vivo
Lung [20] = test: Biodistribution in Sprague-Dawley rat lung at 14.8 to 18.5 MBq, iv measured at 5 mins post-injection by gamma counting analysis; format: ADME, organism-based; conditions: in vivo
Rattus norvegicus [21] = test: Biodistribution in Sprague-Dawley rat fat at 14.8 to 18.5 MBq, iv measured at 60 mins post-injection by gamma counting analysis; format: ADME, organism-based, Adipose tissue; conditions: in vivo, 1 h
Plasma [22] = test: Drug metabolism in iv dosed cynomolgus monkey plasma assessed as retention time by HPLC analysis; format: ADME, organism-based, Macaca fascicularis; conditions: in vivo
Nucleic Acid [23] = test: Ratio of drug level in striatum to cerebellum in Sprague-Dawley rat at 14.8 to 18.5 MBq, iv measured at 60 mins post-injection by gamma counting analysis; format: ADME, organism-based; conditions: in vivo, 1 h
Rattus norvegicus [24] = test: Biodistribution in Sprague-Dawley rat fat at 14.8 to 18.5 MBq, iv measured at 5 mins post-injection by gamma counting analysis; format: ADME, organism-based, Adipose tissue; conditions: in vivo
[25] = Biodistribution in cynomolgus monkey cerebellum at 260 to 370 MBq, iv measured at 20 to 100 mins post-injection by microPET analysis; format: ADME, organism-based, Macaca fascicularis; conditions: in vivo
[26] = Metabolic stability in iv dosed cynomolgus monkey RBC assessed as compound remaining measured at 5 to 60 mins by HPLC analysis; format: ADME, organism-based, Macaca fascicularis, Erythrocyte; conditions: in vivo
Brain [27] = test: Biodistribution in Sprague-Dawley rat brain at 14.8 to 18.5 MBq, iv treated with MP-10 for 5 mins prior to compound administration measured at 30 mins post-injection by gamma counting analysis; format: ADME, organism-based; conditions: in vivo, 0.5 h
Cerebellum [28] = test: Biodistribution in Sprague-Dawley rat cerebellum at 14.8 to 18.5 MBq, iv treated with MP-10 for 5 mins prior to compound administration measured at 30 mins post-injection by gamma counting analysis; format: ADME, organism-based; conditions: in vivo, 0.5 h
Cerebellum [29] = test: Biodistribution in Sprague-Dawley rat cerebellum at 14.8 to 18.5 MBq, iv measured at 60 mins post-injection by gamma counting analysis; format: ADME, organism-based; conditions: in vivo, 1 h
Blood [30] = test: Biodistribution in Sprague-Dawley rat blood at 14.8 to 18.5 MBq, iv measured at 5 mins post-injection by gamma counting analysis; format: ADME, organism-based; conditions: in vivo
Liver [31] = test: Biodistribution in Sprague-Dawley rat liver at 14.8 to 18.5 MBq, iv measured at 5 mins post-injection by gamma counting analysis; format: ADME, organism-based; conditions: in vivo
Striatum [32] = test: Biodistribution in Sprague-Dawley rat striatum at 14.8 to 18.5 MBq, iv measured at 30 mins post-injection by gamma counting analysis; format: ADME, organism-based; conditions: in vivo, 0.5 h
Heart [33] = test: Biodistribution in Sprague-Dawley rat heart at 14.8 to 18.5 MBq, iv treated with MP-10 for 5 mins prior to compound administration measured at 30 mins post-injection by gamma counting analysis; format: ADME, organism-based; conditions: in vivo, 0.5 h
[34] = Drug metabolism in iv dosed cynomolgus monkey plasma assessed as compound remaining measured at 15 mins post-injection by HPLC analysis; format: ADME, organism-based, Macaca fascicularis; conditions: read-out: Stability
[35] = Biodistribution in cynomolgus monkey temporal cortex at 260 to 370 MBq, iv measured at 20 to 100 mins post-injection by microPET analysis; format: ADME, organism-based, Macaca fascicularis; conditions: in vivo
Lung [36] = test: Biodistribution in Sprague-Dawley rat lung at 14.8 to 18.5 MBq, iv treated with MP-10 for 5 mins prior to compound administration measured at 30 mins post-injection by gamma counting analysis; format: ADME, organism-based; conditions: in vivo, 0.5 h
Rattus norvegicus [37] = test: Biodistribution in Sprague-Dawley rat fat at 14.8 to 18.5 MBq, iv measured at 30 mins post-injection by gamma counting analysis; format: ADME, organism-based, Adipose tissue; conditions: in vivo, 0.5 h
Heart [38] = test: Biodistribution in Sprague-Dawley rat heart at 14.8 to 18.5 MBq, iv measured at 60 mins post-injection by gamma counting analysis; format: ADME, organism-based; conditions: in vivo, 1 h

With `Cn1cc(-c2ccncc2)c(-c2ccc(OCc3cc(O[11CH3])c4ccccc4n3)cc2)n1` the Drug uptake (Kidney [1]) was 1.072 % ID/g, the Ratio (Nucleic Acid [2]) was 3.8 and the Drug uptake (Kidney [3]) was 2.34 % ID/g. The Drug uptake [4] was “Active”, the Drug uptake (Striatum [5]) was 0.175 % ID/g and the Drug uptake (Cerebellum [6]) was 0.215 % ID/g. For the same compound, the Drug uptake (Lung [7]) was 0.233 % ID/g, the Drug uptake (Brain [8]) was “Active” and the Drug uptake (Muscle tissue) was 0.224 % ID/g. For the same compound, the Retention_time (Plasma [9]) was 3 min, the Stability (Plasma [10]) was 5% and the Drug uptake (Kidney [11]) was 0.758 % ID/g. The Stability (Plasma [12]) was 65%, the Drug uptake (Heart [13]) was 0.464 % ID/g and the Drug uptake (Striatum [14]) was 0.201 % ID/g. The Drug uptake (Rattus norvegicus [15]) was 0.697 % ID/g, the Drug uptake (Blood [16]) was 0.343 % ID/g and the Drug uptake (Liver [17]) was 10.085 % ID/g. For the same compound, the Drug uptake (Striatum [18]) was 0.352 % ID/g, the Stability (Plasma [19]) was 88% and the Drug uptake (Lung [20]) was 0.89 % ID/g. The Drug uptake (Rattus norvegicus [21]) was 0.278 % ID/g, the Retention_time (Plasma [22]) was 9 min and the Ratio (Nucleic Acid [23]) was 4.5. The Drug uptake (Rattus norvegicus [24]) was 0.242 % ID/g, the Drug uptake [25] was “Active” and the Stability [26] was 25%. The Drug uptake (Brain [27]) was 0.114 % ID/g, the Drug uptake (Cerebellum [28]) was 0.112 % ID/g and the Drug uptake (Cerebellum [29]) was 0.046 % ID/g. For the same compound, the Drug uptake (Blood [30]) was 0.268 % ID/g, the Drug uptake (Liver [31]) was 7.08 % ID/g and the Drug uptake (Striatum [32]) was 0.23 % ID/g. The Drug uptake (Heart [33]) was 0.31 % ID/g, the remaining at 0.25 h [34] was 75% and the Drug uptake [35] was “Active”. It also gave a Drug uptake (Lung [36]) of 0.362 % ID/g, a Drug uptake (Rattus norvegicus [37]) of 0.371 % ID/g and a Drug uptake (Heart [38]) of 0.121 % ID/g.
`Cn1cc(-c2ccncc2)c(-c2ccc(OCc3nc4ccccc4cc3O[11CH3])cc2)n1` gave a Drug uptake (Kidney [1]) of 1.523 % ID/g, a Ratio (Nucleic Acid [2]) of 4.6 and a Drug uptake (Kidney [3]) of 4.354 % ID/g. The Drug uptake [4] was “Active”, the Drug uptake (Striatum [5]) was 0.294 % ID/g and the Drug uptake (Cerebellum [6]) was 0.229 % ID/g. The Drug uptake (Lung [7]) was 0.408 % ID/g, the Drug uptake (Brain [8]) was “Active” and the Drug uptake (Muscle tissue) was 0.257 % ID/g. It also gave a Retention_time (Plasma [9]) of 3 min, a Stability (Plasma [10]) of 5% and a Drug uptake (Kidney [11]) of 1.275 % ID/g. The Stability (Plasma [12]) was 65%, the Drug uptake (Heart [13]) was 0.733 % ID/g and the Drug uptake (Striatum [14]) was 0.38 % ID/g. For the same compound, the Drug uptake (Rattus norvegicus [15]) was 1.353 % ID/g, the Drug uptake (Blood [16]) was 0.407 % ID/g and the Drug uptake (Liver [17]) was 7.345 % ID/g. For the same compound, the Drug uptake (Striatum [18]) was 0.488 % ID/g, the Stability (Plasma [19]) was 88% and the Drug uptake (Lung [20]) was 1.602 % ID/g. For the same compound, the Drug uptake (Rattus norvegicus [21]) was 0.5 % ID/g, the Retention_time (Plasma [22]) was 8 min and the Ratio (Nucleic Acid [23]) was 6. The Drug uptake (Rattus norvegicus [24]) was 0.935 % ID/g, the Drug uptake [25] was “Active” and the Stability [26] was 25%. The Drug uptake (Brain [27]) was 0.128 % ID/g, the Drug uptake (Cerebellum [28]) was 0.119 % ID/g and the Drug uptake (Cerebellum [29]) was 0.064 % ID/g. The Drug uptake (Blood [30]) was 0.679 % ID/g, the Drug uptake (Liver [31]) was 11.005 % ID/g and the Drug uptake (Striatum [32]) was 0.452 % ID/g. The Drug uptake (Heart [33]) was 0.34 % ID/g, the remaining at 0.25 h [34] was 87% and the Drug uptake [35] was “Active”. For the same compound, the Drug uptake (Lung [36]) was 0.404 % ID/g, the Drug uptake (Rattus norvegicus [37]) was 0.851 % ID/g and the Drug uptake (Heart [38]) was 0.199 % ID/g.
